Measurements: paper PMC4632086, “Effects and possible mechanisms of action of acacetin on the behavior and eye morphology of Drosophila models of Alzheimer’s disease” (Scientific Reports, 2015)

Columns and labels:
Format in all cases: in vivo, Drosophila melanogaster
[1] = system: GMR < APP/BACE-1 flies; experiment: Light and scanning electron microscopy of adult compound eyes
Method: GMR < APP/BACE-1 flies were cultured from the egg stage in polystyrene vials containing standard media supplemented with acacetin (100, 300, and 500 μM) in 0.1% DMSO, based on the preliminary test results. The controls received 0.1% DMSO only. […] The morphology of the compound eyes was observed using an EZ4 HD stereo microscope (×35) equipped with an Integrated 3.0 Mega-Pixel CMOS camera (Leica, Hicksville, NY, USA). The flies with aberrant eye phenotypes were collected, and the number of the flies with dark deposits in the eye was counted.
For SEM, the anesthetized male flies (30 days old) were attached to a copper mount using silver paint as a conducting adhesive, as described previously. They were then put directly into the viewing chamber of an SEM without prior coating, as described by Hartman and Hayes[76]. The external surface morphology of the compound eye was visualized using a Supra 55VP field-emission scanning electron microscope (Carl Zeiss, Jena, Germany) operated at 15 kV.

[2] = system: elav < APP/BACE-1 flies; experiment: Fly eclosion rate (pupation and emergence); details: 100, 300, and 500 μM
Method: The pupation and emergence rates were determined according to the method of Tamura et al.[78]. The elav < APP/BACE-1 flies were cultured from the egg stage in vials, as stated previously. Groups of 50 third instar larvae climbing on the wall were transferred into vials containing fresh media. The treated and control (0.1% DMSO only) flies were grown under the same conditions as those used for fly maintenance. The numbers of pupae and adults were determined. All treatments were repeated four times using 50 larvae per replicate.

[3] = system: elav < APP/BACE-1 flies; experiment: Feeding assay (Acid red intake); details: 100, 300, and 500 μM; males; 2 h feeding
Method: The adult feeding assay was performed according to the methods of Wang et al.[33] and Bahadorani et al.[79]. Groups of 15 newly emerged male elav < APP/BACE-1 flies were cultured on standard media for 3 days and then starved for 20 h in vials containing three layers of Whatman no. 2 filter paper (Whatman, Maidstone, UK) soaked in DW. The flies were then transferred into vials containing media (with 0.2% Acid red) supplemented with acacetin (100, 300, and 500 μM) in 0.1% DMSO. The controls were fed with media supplemented with 0.2% Acid red and 0.1% DMSO. After 2 h of feeding, the abdomens were isolated and homogenized in 1 mL DW. After centrifugation (5000 rpm, 25 °C, 5 min), the optical density (OD) of the supernatant was measured at 505 nm, because this OD value is considered to index the amount of food intake by flies, as described by Min and Tatar[80]. All treatments were repeated three times using 15 males per replicate.

[4] = system: Aβ; experiment: Western blot, Aβ in heads of elav < APP/BACE-1 flies; details: 20-day-old males
Method: (§1) The elav < APP/BACE-1 flies were cultured from the egg stage, as described previously. The lysates were obtained from the heads of 50 male flies (20 days old) by placing the heads in 100 μL RIPA buffer (pH 8.0) containing a 1% protease inhibitor cocktail. The controls received 0.1% DMSO. The lysates were centrifuged at 14,000 rpm for 30 min at 4 °C. The protein content of the supernatant was determined using a Bradford Protein Assay kit (Sigma-Aldrich) and BSA was used as the standard. The total proteins (30 μg/sample for APP and BACE-1 detection; 70 μg/sample for Aβ detection) were mixed with an equal volume of 5× sample buffer[81] containing 40 mM of DL-dithiothreitol, boiled for 10 min, and then loaded onto 8, 10, and 12% sodium dodecyl sulfate-polyacrylamide gels using a Mini-Protean 3 electrophoresis cell (Bio-Rad, Hercules, CA, USA) for APP, APP-CTF (APP-αCTF and APP-βCTF) and AICD, BACE-1, and Aβ detection, respectively. After electrophoresis at 110 V in 2 h, the proteins from the gels were transferred onto a polyvinyl difluoride membrane (Pall Corporation, Pensacola, FL, USA) using an electroblotting apparatus. The membrane was then blocked with 5% skim milk (BD Difco, Flanklin Lakes, NJ, USA) in PBS containing 0.1% (v/v) Tween-20 (0.1% PBS-T) at room temperature for 1 h, and further incubated overnight at 4 °C with a 1:4,000 dilution of an anti-APP C-terminal antibody to detect the cleaved APP product, a 1:1,000 dilution of anti-BACE-1, and a 1:1,000 dilution of anti-amyloid (4G8). After washing with 0.1% PBS-T three times at 10 min intervals, the membranes were further incubated for 2 h with a goat anti-rabbit IgG H&L (HRP) secondary antibody at a1:4,000 dilution for APP and BACE-1 and a goat anti-mouse lgG-HRP at a 1:5,000 dilution for β-amyloid. […] The differences in protein expression were quantified using a Molecular Imager Gel Doc XR system (Bio-Rad, Hercules, CA, USA) and normalized to actin expression on the same membrane. The results are expressed as the means ± SEs of duplicate samples from three independent experiments.

[5] = system: human BACE-1; experiment: Western blot, BACE-1 protein in heads of elav < APP/BACE-1 flies; details: 20-day-old males
Method: as §1

[6] = system: human APP; experiment: Western blot, APP protein in heads of elav < APP/BACE-1 flies; details: 20-day-old males
Method: as §1

[7] = system: APP-CTF; experiment: Western blot, APP-CTF in heads of elav < APP/BACE-1 flies; details: 100, 300, and 500 μM; 20-day-old males
Method: The elav < APP/BACE-1 flies were cultured from the egg stage, as described previously. The lysates were obtained from the heads of 50 male flies (20 days old) by placing the heads in 100 μL RIPA buffer (pH 8.0) containing a 1% protease inhibitor cocktail. The controls received 0.1% DMSO. The lysates were centrifuged at 14,000 rpm for 30 min at 4 °C. The protein content of the supernatant was determined using a Bradford Protein Assay kit (Sigma-Aldrich) and BSA was used as the standard. The total proteins (30 μg/sample for APP and BACE-1 detection; 70 μg/sample for Aβ detection) were mixed with an equal volume of 5× sample buffer[81] containing 40 mM of DL-dithiothreitol, boiled for 10 min, and then loaded onto 8, 10, and 12% sodium dodecyl sulfate-polyacrylamide gels using a Mini-Protean 3 electrophoresis cell (Bio-Rad, Hercules, CA, USA) for APP, APP-CTF (APP-αCTF and APP-βCTF) and AICD, BACE-1, and Aβ detection, respectively. […] The differences in protein expression were quantified using a Molecular Imager Gel Doc XR system (Bio-Rad, Hercules, CA, USA) and normalized to actin expression on the same membrane. The results are expressed as the means ± SEs of duplicate samples from three independent experiments.

SMILES: COc1ccc(-c2cc(=O)c3c(O)cc(O)cc3o2)cc1 [acacetin]
- ratio of female flies with dark deposits in the eyes ([1]; 100, 300, and 500 μM in media, 1-day-old females, vehicle DMSO […]): 6.3–8.0%
- ratio of male flies with dark deposits in the eyes ([1]; 100, 300, and 500 μM in media, 1-day-old males, vehicle DMSO 18.7%): 5.0–7.0%
- ommatidial fusion in the central side of the eyes ([1]; 100, 300, and 500 μM, light microscopy, vs vehicle-fed flies): significantly suppressed ommatidial fusion
- ommatidial fusion at the edges of the eyes ([1]; 300 and 500 μM, light microscopy): ameliorated ommatidial fusion
- pupation rate [2]: nearly normal pupation rates
- emergence of flies ([2]; vehicle 76%, elav-Gal4/+ 99%, not significant vs vehicle): 82–86%
- feeding (food intake) [3]: did not significantly affect feeding
- Aβ levels, % of the controls ([4]; 100 μM): 71%
- Aβ levels, % of the controls ([4]; 300 μM): 72%
- Aβ levels, % of the controls ([4]; 500 μM): 47%
- BACE-1 protein levels, % of the control levels ([5]; 100 μM): 81%
- BACE-1 protein levels, % of the control levels ([5]; 300 μM): 75%
- BACE-1 protein levels, % of the control levels ([5]; 500 μM): 74%
- APP levels, % of the control levels ([6]; 100 μM, not significantly different from control): 86%
- APP levels, % of the control levels ([6]; 300 μM): 70%
- APP levels, % of the control levels ([6]; 500 μM): 69%
- APP-CTF, % of the control levels [7]: approximately 80%
